# Measured values from US11696956B2, “Bicyclic peptide ligands specific for EphA2” (BicycleTx Limited, priority 2017, dated 2023).
# Assays:
# rat EphA2 = molecular target: T1, rat EphA2 (Rattus norvegicus, UniProt D3ZBN3); experiment: FP competition binding (Study 2, alternative protocol); details: summary of Table 10
# T1 construct: Rat; C-; In-house; N/A; polyHis (C); made in house
# Mouse EphA2 = molecular target: T2, Mouse EphA2 (Mus musculus, UniProt Q03145); experiment: as above; details: summary of Table 10
# T2 construct: EphA2 (Ecto); Mouse; C-; Sino; 50586-M08H; polyHis (C); purchased Sino Biological 50586-M08H
# PC-3 xenograft = experiment: Study 8: in vivo efficacy, PC-3 xenograft; details: qw
# Protocol: The major endpoint was to see if the tumor growth could be delayed or mice could be cured. Tumor volume was measured three times weekly in two dimensions using a caliper, and the volume was expressed in mm^3 using the formula: V=0.5 a×b^2 where a and b are the long and short diameters of the tumor, respectively. The tumor size was then used for calculations of T/C value. The T/C value (in percent) is an indication of antitumor effectiveness; T and C are the mean volumes of the treated and control groups, respectively, on a given day. TGI was calculated for each group using the formula: TGI (%)=[1−(Ti−T0)/(Vi−V0)]×100; Ti is the average tumor volume of a treatment group on a given day, T0 is the average tumor volume of the treatment group on the day of treatment start, Vi is the average tumor volume of the vehicle control group on the same day with Ti, and V0 is the average tumor volume of the vehicle group on the day of treatment start.
# A one-way ANOVA was performed to compare tumor volume among groups, and when a significant F-statistics (a ratio of treatment variance to the error variance) was obtained, comparisons between groups were carried out with Games-Howell test. […] P<0.05 was considered to be statistically significant.
# The tumor cells were maintained in F-12K medium supplemented with 10% heat inactivated fetal bovine serum at 37° C. in an atmosphere of 5% CO2 in air. The tumor cells were routinely subcultured twice weekly. The cells growing in an exponential growth phase were harvested and counted for tumor inoculation.
# 52 animals were randomized when the average tumor volume reached 454 mm^3.
# Tumor growth inhibition rate for test articles in the PC-3 xenograft model was calculated based on tumor volume measurements at day 20 after the start of the treatment.
# Human EphA2 = molecular target: T3, Human EphA2 (Homo sapiens, UniProt P29317); experiment: FP competition binding (Study 2, alternative protocol); details: summary of Table 10
# T3 construct: EphA2 (Ecto); Human; C-terminal; R&D systems; 3035-A2; polyHis (C); purchased R&D systems 3035-A2
# T3 sequence (P29317 24-537 limits assumed): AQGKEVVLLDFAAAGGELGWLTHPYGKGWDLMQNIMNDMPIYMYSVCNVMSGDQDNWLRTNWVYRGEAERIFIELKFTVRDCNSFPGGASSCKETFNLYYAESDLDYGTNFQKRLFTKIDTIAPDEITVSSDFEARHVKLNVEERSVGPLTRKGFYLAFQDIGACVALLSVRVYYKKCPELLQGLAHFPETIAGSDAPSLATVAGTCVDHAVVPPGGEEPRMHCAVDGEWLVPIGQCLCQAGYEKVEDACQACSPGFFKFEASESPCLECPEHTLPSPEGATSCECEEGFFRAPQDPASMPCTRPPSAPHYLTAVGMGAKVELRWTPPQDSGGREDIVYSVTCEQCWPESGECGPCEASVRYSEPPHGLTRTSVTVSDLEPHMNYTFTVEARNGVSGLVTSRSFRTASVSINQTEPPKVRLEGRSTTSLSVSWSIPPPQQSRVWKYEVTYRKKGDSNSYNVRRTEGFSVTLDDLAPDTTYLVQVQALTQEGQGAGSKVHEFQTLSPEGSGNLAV
# T2 sequence (Q03145 26-538 limits assumed): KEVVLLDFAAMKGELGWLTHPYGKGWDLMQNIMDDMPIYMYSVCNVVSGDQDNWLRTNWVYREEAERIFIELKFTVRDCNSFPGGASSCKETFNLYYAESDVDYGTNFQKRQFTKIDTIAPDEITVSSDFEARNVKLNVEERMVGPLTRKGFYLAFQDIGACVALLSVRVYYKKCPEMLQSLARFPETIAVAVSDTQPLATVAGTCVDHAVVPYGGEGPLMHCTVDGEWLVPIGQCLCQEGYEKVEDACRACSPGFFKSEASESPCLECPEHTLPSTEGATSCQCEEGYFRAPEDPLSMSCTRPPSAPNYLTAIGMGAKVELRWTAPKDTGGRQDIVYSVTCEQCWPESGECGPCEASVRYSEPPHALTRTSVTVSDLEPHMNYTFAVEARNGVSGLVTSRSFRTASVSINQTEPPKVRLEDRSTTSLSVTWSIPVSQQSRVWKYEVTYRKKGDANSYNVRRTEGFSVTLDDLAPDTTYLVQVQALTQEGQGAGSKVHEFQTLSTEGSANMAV
# T1 sequence (D3ZBN3 26-205): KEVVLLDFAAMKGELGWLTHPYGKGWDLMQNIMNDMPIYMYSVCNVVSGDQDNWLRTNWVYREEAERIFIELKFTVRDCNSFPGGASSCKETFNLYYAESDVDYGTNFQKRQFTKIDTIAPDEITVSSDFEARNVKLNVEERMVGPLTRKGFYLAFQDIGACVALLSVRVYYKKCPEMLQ
compound,measurement,setting,value
(β-Ala)-Sar10-A(HArg)DCPLVNPLCLHPGVVTC [Compound 67],binding to rat EphA2,rat EphA2,bind with high affinity
same,binding to mouse EphA2,Mouse EphA2,bind with high affinity
(β-Ala)-Sar10-A(HArg)DC(HyP)LVNPLCLHP(D-Asp)W(HArg)C [Compound 66],binding to rat EphA2,rat EphA2,bind with high affinity
same,binding to mouse EphA2,Mouse EphA2,bind with high affinity
CC(=O)O[C@@]12CO[C@@H]1C[C@H](O)[C@@]1(C)C(=O)[C@H](O)C3=C(C)[C@@H](OC(=O)[C@H](O)[C@@H](NC(=O)OC(C)(C)C)c4ccccc4)C[C@@](O)([C@@H](OC(=O)c4ccccc4)[C@H]21)C3(C)C [Docetaxel],animal body weight loss,PC-3 xenograft; 15 mg/kg,severe animal body weight loss
same,TGI,"PC-3 xenograft; 15 mg/kg, day 20",101.8%
same,TV (tumor volume),"PC-3 xenograft; 15 mg/kg, day 20",419 mm^3
same,Mean tumor volume,"PC-3 xenograft; 15 mpk, day 0",453 ± 62 mm^3
same,Mean tumor volume,"PC-3 xenograft; 15 mpk, day 2",584 ± 72 mm^3
same,Mean tumor volume,"PC-3 xenograft; 15 mpk, day 4",632 ± 56 mm^3
same,Mean tumor volume,"PC-3 xenograft; 15 mpk, day 6",636 ± 48 mm^3
same,Mean tumor volume,"PC-3 xenograft; 15 mpk, day 8",568 ± 50 mm^3
same,Mean tumor volume,"PC-3 xenograft; 15 mpk, day 10",408 ± 31 mm^3
same,Mean tumor volume,"PC-3 xenograft; 15 mpk, day 13",374 ± 26 mm^3
same,Mean tumor volume,"PC-3 xenograft; 15 mpk, day 15",388 ± 36 mm^3
same,Mean tumor volume,"PC-3 xenograft; 15 mpk, day 17",361 ± 25 mm^3
same,Mean tumor volume,"PC-3 xenograft; 15 mpk, day 20",419 ± 31 mm^3
same,T/C,"PC-3 xenograft; 15 mpk, day 20",17.7%
same,TGI,"PC-3 xenograft; 15 mpk, day 20",101.8%
same,Tumor Volume,"PC-3 xenograft; 15 mpk, day 20, Mean ± SEM",419 ± 31 mm^3
Ac-CPLVNPLCLHPGVVTCLHG-Sar6-(D-K) [Compound 77],binding to mouse EphA2,Mouse EphA2,binds
same,binding to human EphA2,Human EphA2,binds
